Test results published in patent US6562856B1, “Pyrazolyl benzyl ether deriviatives having a fluoromethoxy group and the use thereof as pesticides” (Bayer Aktiengesellschaft, priority 1999, dated 2003).

Columns and labels:
[1] = tested on: greenhouse red spider mite (Tetranychus urticae); test: Tetranychus Test (OP-resistant/dip Treatment); details: bean plants dipped, OP-resistant, concentration of active compound 100 ppm
Method: Emulsifier: 1 part by weight of alkylaryl polyglycol ether
After the desired period of time, the kill in % is determined. 100% means that all spider mites have been killed; 0% means that none of the spider mites have been killed.

[2] = tested on: Sphaerotheca fuliginea; test: Sphaerotheca Test (Cucumber)/protective; format: in vivo; details: protective, application rate 100 g/ha, evaluation 10 days after inoculation
Method: Sphaerotheca Test (Cucumber)/protective
(§1) To test for protective activity, young plants are sprayed with the preparation of active compound at the stated application rate. After the spray coating has dried on, the plants are inoculated with an aqueous spore suspension of Sphaerotheca fuliginea. The plants are then placed in a greenhouse at about 23° C. and a relative atmospheric humidity of about 70%.
(§2) Evaluation is carried out 10 days after the inoculation. 0% means an efficacy which corresponds to that of the control, whereas an efficacy of 100% means that no infection is observed.

[3] = tested on: caterpillars of the armyworm (Spodoptera frugiperda); test: Spodoptera frugiperda Test; format: in vivo; details: cabbage leaves dipped, concentration of active compound 1000 ppm
From the text: Spodoptera frugiperda Test
(§3) Solvent: 30 parts by weight of acetone

[4] = tested on: green peach aphid (Myzus persicae); test: Myzus test; format: in vivo; details: broad bean seedlings dipped, concentration of active compound 1000 ppm
From the text: as §3

[5] = tested on: larvae of the mustard beetle (Phaedon cochleariae); test: Phaedon Larvae Test; format: in vivo; details: cabbage leaves dipped, concentration of active compound 1000 ppm
From the text: as §3

[6] = tested on: Leptosphaeria nodorum; test: Leptosphaeria nodorum Test (Wheat)/protective; format: in vivo; details: protective, application rate 750 g/ha, evaluation 12-14 days after inoculation
Method: Leptosphaeria nodorum Test (Wheat)/protective
To test for protective activity, young wheat plants are sprayed with the preparation of active compound at the stated application rate. 1 day after the treatment, the plants are inoculated with an aqueous spore suspension of Leptosphaeria nodorum and then remain at 100% rel. atmospheric humidity and 20° C. for 48 h. The plants are then placed in a greenhouse at 80% rel. atmospheric humidity and a temperature of 22° C.
Evaluation is carried out 12-14 days after the inoculation. 0% means an efficacy which corresponds to that of the control, whereas an efficacy of 100% means that no infection is observed.

[7] = tested on: Alternaria solani; test: Alternaria Test (Tomato)/protective; format: in vivo; details: protective, application rate 750 g/ha, evaluation 7 days after inoculation
Method: Alternaria Test (Tomato)/protective
To test for protective activity, young tomato plants are sprayed with the preparation of active compound at the stated application rate. 1 day after the treatment, the plants are inoculated with a spore suspension of Alternaria solani and then remain at 100% rel. humidity and 20° C. for 24 h. The plants then remain at 96% rel. atmospheric humidity and a temperature of 20° C.
Evaluation is carried out 7 days after the inoculation. 0% means an efficacy which corresponds to that of the control, whereas an efficacy of 100% means that no infection is observed.

[8] = tested on: Plasmopara viticola; test: Plasmopara Test (Grapevine)/protective; format: in vivo; details: protective, application rate 100 g/ha, evaluation 6 days after inoculation
Method: Plasmopara Test (Grapevine)/protective
To test for protective activity, young plants are sprayed with the preparation of active compound at the stated application rate. After the spray coating has dried on, the plants are inoculated with an aqueous spore suspension of Plasmopara viticola and then remain in an incubation cabinet at about 20° C. and 100% relative atmospheric humidity for 1 day. The plants are then placed in a greenhouse at about 21° C. and about 90% relative atmospheric humidity for 5 days. The plants are then moistened and placed in an incubation cabin for 1 day.
Evaluation is carried out 6 days after the inoculation. 0% means an efficacy which corresponds to that of the control, whereas an efficacy of 100% means that no infection is observed.

[9] = tested on: Pyricularia oryzae; format: in vivo; details: rice, protective, application rate 125 g/ha, evaluation 7 days after inoculation
[10] = tested on: Podosphaera leucotricha; test: Podosphaera Test (Apple)/protective; format: in vivo; details: protective, application rate 100 g/ha, evaluation 10 days after inoculation
Method: Podosphaera Test (Apple)/protective
as §1, with “the apple mildew pathogen Podosphaera leucotricha.” for “Sphaerotheca fuliginea.”
as §2

Compound: COC(=O)C(=COCF)c1ccccc1COc1ccn(-c2ccc(Cl)cc2)n1 [Example 1, methyl 2-[2-({[1-(4-chlorophenyl)-1H-pyrazol-3-yl]oxy}methyl)phenyl]-3-(fluoromethoxy)-2-acrylate]
- kill rate [1]: 90%
- efficacy [2]: ≥ 98%
- kill rate [3]: 100%
- kill rate [4]: 100%
- kill rate [5]: 100%
- chromatographic logP: 3.91
- efficacy [6]: ≥ 98%
- efficacy [7]: ≥ 80%
- efficacy [8]: ≥ 98%
- efficacy [9]: ≥ 80%
- efficacy [10]: ≥ 98%
